Reference: patent publication US20140271499A1, “ARTICLE AND METHOD OF INITIATING BONE REGROWTH AND RESTORATION OF GUM RECESSION WITH LOCALIZED SUBGINGIVAL DELIVERY OF MEDICATIONS” (priority 2013, published 2014)
“Also recorded” adds a separate entry of the source.

Tests used:
alveolar bone = assay: Clinical cases: topical tray delivery to the periodontal pocket, alveolar bone and gingival tissue regrowth; format: in vivo, patient
Excerpt: (§1) One exemplary method will now be described. An initial examination determines the conditions of the patient's periodontal disease. Models of the patient along with their periodontal probing is forwarded to a laboratory registered to make the custom formed medical device (Perio Tray), which is capable of delivering about 1.7% hydrogen peroxide gel (Perio Gel) to the diseased tissue. […] The depth of the biofilm and the tissue damage that exist determines the frequency and duration of usage. Patients with severe tissue damage (6 mm or greater) use the Perio Tray about 4 times a day. Patients with moderate damage (3 mm to 6 mm) use the Perio Tray about 3 times a day and patients maintain their health using the trays once or twice a day for about 15 minutes.
After the photographs of FIGS. 12A, 14A, 16A, and 18A were taken in 2004, the patient began a treatment as described above that included regular direct/topical medication delivery to the a to the gingival sulcus and/or periodontal pocket 37 in 2004 delivering doxycycline subgingival and interproximal with the medicament delivery tray.
The fact teeth appear longer as we age is supported in the literature. This is explained as a greater action of osteoclasts as compared to the cellular activity of osteoblasts with a resultant decrease in alveolar bone 40B around the patient's teeth 10 with an accompanying loss of gingival tissue 24B appearing as receding gum tissue 24B and the exposure of a greater root surface making the teeth 10 appear longer.

osteoclasts = assay: Initial study of osteoclastic and osteoblastic activity on exposure to doxycycline; format: cell-based; settings: exposed to doxycycline
Excerpt: Doxycycline bonds to internal and external calcium ions causing osteoclasts to detach from the bone, thus decreasing or stopping bone loss. […] The stoppage of bone loss and the maintenance of bone regeneration results in a net gain of new bone over time as long as the doxycycline is continually delivered to the bone/tissue interface with the currently disclosed method.

oral biofilm = assay: Penetration and eradication of oral biofilm by hydrogen peroxide gel
Excerpt: as §1

[1] = oxygen delivered directly to the tissues

Structure (SMILES) | tooth mobility (alveolar bone; case studies, direct delivery to the periodontal pocket) | formation of new osteoclasts by precursor cells (alveolar bone; clinic tests) | bone loss and bone regeneration (alveolar bone; delivery to gingival sulcus or periodontal pocket) | attachment of osteoclasts to bone (alveolar bone; lengthy clinic tests) | cellular activity of osteoblasts (alveolar bone; lengthy clinic tests) | alveolar bone (radiographs) (alveolar bone; patient treated 1976 to 2012, hydrogen peroxide and topically applied doxycycline) | formation of new osteoclasts from osteoclastic precursor cells (osteoclasts) | osteoblastic activity (osteoclasts) | osteoclastic activity (osteoclasts) | kill of biofilm bacteria (oral biofilm) | eradication of biofilm bacteria (biofilm bacteria; in 14 to 17 days) | time to bring to an end the facultative anaerobes (biofilm bacteria; [1]) | time to kill the obligate anaerobes (biofilm bacteria; [1])
C[C@H]1c2cccc(O)c2C(=O)C2=C(O)[C@]3(O)C(=O)C(C(N)=O)=C(O)[C@@H](N(C)C)[C@@H]3[C@@H](O)[C@@H]21 [doxycycline] | decrease | completely stopped; also recorded: completely abrogates | stops bone loss and augments bone regeneration | inhibit | maintain or increase | regrown and increased | completely abrogated | augmentation | decrease |  |  |  | 
OO [hydrogen peroxide] |  |  |  |  |  |  |  |  |  | 99.999% | 99.98% | 7 days | 2 days
